Each structure is given as a SMILES string. Bounds are passed on as bounds.

For the first test, the target named is recombinant human PDE-10 enzyme (PDE-10A) (Homo sapiens (Human), UniProt Q9Y233). The experiment in a line: IMAP PDE Fluorescence Polarization assay, human PDE-10 inhibition (enzyme assay). The class given is biochemical.
recombinant human PDE-10 enzyme (PDE-10A), sequence (Q9Y233 whole entry): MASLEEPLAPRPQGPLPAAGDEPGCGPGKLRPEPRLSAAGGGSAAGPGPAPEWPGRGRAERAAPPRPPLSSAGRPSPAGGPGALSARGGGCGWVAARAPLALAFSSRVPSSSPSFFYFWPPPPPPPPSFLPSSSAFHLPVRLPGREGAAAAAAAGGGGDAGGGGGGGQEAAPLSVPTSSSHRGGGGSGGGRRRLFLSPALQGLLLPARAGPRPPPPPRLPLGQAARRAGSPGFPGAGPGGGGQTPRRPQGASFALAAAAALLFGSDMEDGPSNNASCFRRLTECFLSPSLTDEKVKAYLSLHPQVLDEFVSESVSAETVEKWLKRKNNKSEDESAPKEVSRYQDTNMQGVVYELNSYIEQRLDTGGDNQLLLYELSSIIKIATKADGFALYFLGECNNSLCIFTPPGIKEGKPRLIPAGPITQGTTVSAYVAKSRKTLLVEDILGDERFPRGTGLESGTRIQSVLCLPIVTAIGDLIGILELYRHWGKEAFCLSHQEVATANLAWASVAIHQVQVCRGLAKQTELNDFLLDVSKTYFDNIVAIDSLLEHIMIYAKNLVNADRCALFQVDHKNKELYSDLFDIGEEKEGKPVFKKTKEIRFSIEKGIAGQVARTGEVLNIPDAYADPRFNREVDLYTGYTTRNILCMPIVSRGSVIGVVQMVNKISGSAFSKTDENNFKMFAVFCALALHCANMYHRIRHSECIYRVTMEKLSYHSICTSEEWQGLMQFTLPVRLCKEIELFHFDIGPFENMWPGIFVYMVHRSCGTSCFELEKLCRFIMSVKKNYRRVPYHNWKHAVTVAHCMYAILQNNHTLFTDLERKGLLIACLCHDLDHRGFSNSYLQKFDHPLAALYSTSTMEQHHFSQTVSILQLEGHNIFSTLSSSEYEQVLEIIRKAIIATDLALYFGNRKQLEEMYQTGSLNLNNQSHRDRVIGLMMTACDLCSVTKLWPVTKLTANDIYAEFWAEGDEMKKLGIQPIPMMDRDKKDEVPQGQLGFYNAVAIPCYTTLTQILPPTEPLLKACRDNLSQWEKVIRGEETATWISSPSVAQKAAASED
Details: not given
The method, then: In one embodiment, the compounds provided herein were assayed for their ability to inhibit human PDE-10A. In one embodiment, the activities of the compounds were determined using the Molecular Devices IMAP PDE Fluorescence Polarization assay using recombinant human PDE-10 enzyme expressed in a baculoviral system. Briefly, 10 μL of a compound (0.2 nM-20 μM) was added to either a 96-well half area black plate or a 384-well black plate along with 10 μL of Fluorescein-labeled cAMP/cGMP substrate as per manufacturer's instructions and 10 μL of PDE enzyme (activity 0.1 U). Following a 40-minute incubation at 37° C., 60 μL of IMAP binding reagent was added. […] The data was analyzed using Prism Software (GraphPad Inc, San Diego, Calif.).
A word on the IC50: it is the midpoint of a concentration-inhibition curve. On to `Cn1c(/C=C/c2nc(-c3ccccc3)c[nH]2)nc2ccccc2c1=O` [Compound 9], for which the half-maximal inhibitory concentration (IC50) is greater than 10000 nM.

Staying with this test, now noted: recombinant human PDE-10, fluorescein-labeled cAMP/cGMP substrate, 40 min at 37° C.
Turning to `O=c1[nH]c2ccccc2nc1CCc1nc(-c2ccccc2)c[nH]1` [Compound 2], the IC50 was less than 500 nM.
The same measure, in the same setting: to `O=c1[nH]c(CCc2nc(-c3ccccc3)c[nH]2)nc2cc3ccccc3cc12` [Compound 6] belongs greater than 10000 nM.
Regarding `COc1cc2nc(CCc3nc(-c4ccccc4)c[nH]3)[nH]c(=O)c2cc1OC` [Compound 7], the 50% inhibitory concentration (IC50) is greater than 10000 nM.
Still for that read-out and setting: to `Cn1c(CCc2nc(-c3ccccc3)c[nH]2)nc2ccccc2c1=O` [Compound 10] belongs 1000 to 10000 nM; to `c1ccc(-c2c[nH]c(CCc3ncc4ccccc4n3)n2)cc1` [Compound 13], less than 500 nM; to `O=c1[nH]c(CCc2cc(-c3ccccc3)n[nH]2)nc2ccccc12` [Compound 14], 1000 to 10000 nM.
On to `Cn1nc(-c2ccccc2)cc1CCc1nc2ccccc2c(=O)[nH]1` [Compound 15], for which the IC50 fell in the range of 1000 to 10000 nM.
Same read-out and setting: then `Cn1cc(-c2ccccc2)nc1CCc1ncc2ccccc2n1` [Compound 18], with less than 500 nM.
The same measure, in the same setting: then `O=c1[nH]c(CCc2nc3ccccc3[nH]2)nc2ccccc12` [Compound 21], with 1000 to 10000 nM; and `O=c1[nH]c(/C=C/c2nc3ccccc3[nH]2)nc2ccccc12` [Compound 22], with greater than 10000 nM; and `Cn1c(/C=C/c2nc3ccccc3c(=O)[nH]2)nc2ccccc21` [Compound 23], with 1000 to 10000 nM.
Still for that read-out and setting: then `Cn1c(CCc2nc3ccccc3c(=O)[nH]2)nc2ccccc21` [Compound 24], with greater than 10000 nM; and `Cn1c(CCc2ccc3ccccc3n2)nc2ccccc21` [Compound 25], with 1000 to 10000 nM.
As for `Cn1c(CCc2cnc3ccccc3n2)nc2ccccc21` [Compound 26], the IC50 was 1000 to 10000 nM.
The same measure, in the same setting: then `O=c1[nH]c(CCn2cnc(-c3ccccc3)c2)nc2ccccc12` [Compound 27], with 1000 to 10000 nM; and `C(=C\c1cccs1)/c1nc(-c2ccccc2)c[nH]1` [Compound 28], with greater than 10000 nM.
`c1ccc(-c2c[nH]c(CCc3cccs3)n2)cc1` [Compound 29]: the IC50 was greater than 10000 nM.
Same read-out and setting: then `C(=C\c1nc(-c2ccccc2)c[nH]1)/c1ccccn1` [Compound 32], with greater than 10000 nM; and `c1ccc(-c2c[nH]c(CCc3ccccn3)n2)cc1` [Compound 33], with greater than 10000 nM; and `c1ccc(-c2c[nH]c(CCc3ccc4ccccc4c3)n2)cc1` [Compound 35], with greater than 10000 nM.
Take `O=c1[nH]c(CCc2ccc(-c3ccccc3)s2)nc2ccccc12` [Compound 37]: the concentration for half-maximal inhibition (IC50) was greater than 10000 nM.
Take `O=c1[nH]c(/C=C/c2ccc(-c3ccccc3)s2)nc2ccccc12` [Compound 38]: the IC50 is greater than 10000 nM.
Turning to `Cn1cc(-c2ccncc2)nc1CCc1ccc2ccccc2n1` [Compound 41], the concentration for half-maximal inhibition (IC50) is 1000 to 10000 nM.
Same read-out and setting: to `Cn1cc(-c2cccc(F)c2F)nc1CCc1ccc2ccccc2n1` [Compound 44] belongs 500 to 1000 nM.
Turning to `Cn1cc(-c2ccncc2)nc1CCc1cnc2ccccc2n1` [Compound 47], the IC50 was greater than 10000 nM.
Take `O=c1[nH]c(CCc2nc(-c3cc4ccccc4o3)c[nH]2)nc2ccccc12` [Compound 53]: the IC50 lay within 1000 to 10000 nM.
On the same count and under the same terms, to `O=c1[nH]c(CCc2nc(-c3ccc(Cl)cc3)c[nH]2)nc2ccccc12` [Compound 54] belongs 1000 to 10000 nM; to `O=c1[nH]c(CCc2nc(-c3cccc4ccccc34)c[nH]2)nc2ccccc12` [Compound 55], 1000 to 10000 nM.
The same measure, in the same setting: to `O=c1[nH]c(CCc2nc(-c3ccccc3C(F)(F)F)c[nH]2)nc2ccccc12` [Compound 62] belongs 1000 to 10000 nM; to `O=c1[nH]c(CCc2nc(-c3ccc(-c4ccccc4)cc3)c[nH]2)nc2ccccc12` [Compound 63], greater than 10000 nM.
`c1coc(-c2c[nH]c(CCc3ccc4ccccc4n3)n2)c1` [Compound 66]: the IC50 was 500 to 1000 nM.
Consider `c1ccc2nc(CCc3nc(-c4ccncc4)c[nH]3)ccc2c1` [Compound 68], for which the IC50 is 1000 to 10000 nM.
Take `Fc1cccc(-c2c[nH]c(CCc3ccc4ccccc4n3)n2)c1F` [Compound 71]: the half-inhibitory concentration (IC50) is 500 to 1000 nM.
As to `c1ccc2nc(CCc3nc(-c4ccncc4)c[nH]3)cnc2c1` [Compound 74], the IC50 lay within 1000 to 10000 nM.
For `c1cncc(-c2c[nH]c(CCc3cnc4ccccc4n3)n2)c1` [Compound 78], the concentration for half-maximal inhibition (IC50) was less than 500 nM.
For `c1ccc(-c2ncc(CCc3cnc4ccccc4n3)o2)cc1` [Compound 80], the IC50 is greater than 10000 nM.
The same measure, in the same setting: to `c1ccc(-c2cccc(CCc3cnc4ccccc4n3)n2)cc1` [Compound 81] belongs greater than 10000 nM; to `Cn1c(CCc2cnc3ccccc3n2)nc2ccc3ncccc3c21` [Compound 83], 1000 to 10000 nM.
The same measure, in the same setting: to `Cn1c(CCc2cnc3ccccc3n2)nc2c3cccnc3ccc21` [Compound 84] belongs less than 500 nM; to `Cn1c(CCc2ccc3ccccc3n2)nc2c3cccnc3ccc21` [Compound 85], less than 500 nM; to `c1ccc2nc(CCc3nc4c(ccc5ncccc54)[nH]3)ccc2c1` [Compound 86], less than 500 nM.
On the same count and under the same terms, then `Cc1ccc(C)c2nc(CCc3nc4c(ccc5ncccc54)[nH]3)cnc12` [Compound 87], with less than 500 nM; and `Cc1ccc(C)c2nc(CCc3nc4c5cccnc5ccc4n3C)cnc12` [Compound 88], with less than 500 nM; and `Cc1ccc(C)c2nc(CCc3nc4ccc5ncccc5c4n3C)cnc12` [Compound 89], with less than 500 nM.
Regarding `Cn1c(CCc2ccc3ccccc3n2)nc2c3ccccc3ccc21` [Compound 90], the IC50 is less than 500 nM.
For the molecule `Cn1c(CCc2ccc3ccccc3n2)nc2ccc3ccccc3c21` [Compound 91], the IC50 is 1000 to 10000 nM.
For the molecule `COc1cc2nc(CCc3cnc4ccccc4n3)[nH]c2cc1OC` [Compound 96], the IC50 fell in the range of 1000 to 10000 nM.
Regarding `c1ccc2nc(CCc3nc4cc5c(cc4[nH]3)OCO5)cnc2c1` [Compound 98], the IC50 is 1000 to 10000 nM.
The same measure, in the same setting: to `Oc1cccc2nc(CCc3cnc4ccccc4n3)[nH]c12` [Compound 99] belongs 500 to 1000 nM; to `CC(C)(C)c1ccc2nc(CCc3cnc4ccccc4n3)[nH]c2c1` [Compound 100], 1000 to 10000 nM.
Consider `Fc1cc2[nH]c(CCc3cnc4ccccc4n3)nc2cc1Cl` [Compound 101], for which the 50% inhibitory concentration (IC50) lay within 500 to 1000 nM.
The same measure, in the same setting: to `FC(F)(F)c1ccc2[nH]c(CCc3cnc4ccccc4n3)nc2c1` [Compound 104] belongs 1000 to 10000 nM; to `FC(F)(F)Oc1ccc2[nH]c(CCc3cnc4ccccc4n3)nc2c1` [Compound 105], 1000 to 10000 nM.
On the same count and under the same terms, then `Cc1nc2ccccc2nc1CCc1nc2ccccc2[nH]1` [Compound 106], with 500 to 1000 nM; and `c1ccc2nc(CCc3nc4ccccc4o3)cnc2c1` [Compound 107], with greater than 10000 nM; and `c1ccc(-c2csc(CCc3cnc4ccccc4n3)n2)cc1` [Compound 108], with less than 500 nM.
On the same count and under the same terms, to `O=c1[nH]c(CCc2nc3ccccc3o2)nc2ccccc12` [Compound 109] belongs greater than 10000 nM; to `O=c1[nH]c(CCc2nc(-c3ccccc3)c(-c3ccccc3)o2)nc2ccccc12` [Compound 111], 1000 to 10000 nM.
Turning to `O=c1[nH]c(CCc2nc3ccccc3s2)nc2ccccc12` [Compound 112], the IC50 is greater than 10000 nM.
Same read-out and setting: to `O=c1[nH]c(CCc2cc(-c3ccccc3)no2)nc2ccccc12` [Compound 113] belongs greater than 10000 nM; to `c1ccc(-c2nc(CCc3cnc4ccccc4n3)n3c2CCCC3)cc1` [Compound 114], less than 500 nM.

Source of the values: US9834564B2, “Substituted quinolines as PDE-10 inhibitors” (priority 2010, dated 2017).
